Results from patent publication US11999750B2, “Crystalline forms of (S)-5-benzyl-N-(5-methyl-4-oxo-2,3,4,5-tetrahydropyrido [3,2-B][1,4]oxazepin-3-yl)-4H-1,2,4-triazole-3-carboxamide” (Denali Therapeutics Inc., priority 2022, dated 2024).
≈ marks a conversion by molar mass, not a printed value. Entries after “also recorded” stand apart in the source; their conditions may differ.

Assays:
Assay type in all cases: physicochemical
[1] = Slurry competition experiments (inter-conversion study of crystal forms); conditions: for Thermodynamic stability relationship / conversion in slurry: slurry in H2O and n-Heptane for 2 days, RT and 70° C.
Procedure: To understand the thermodynamic stability relationship between Form A, B and C, slurry competition experiments in H2O and n-Heptane were performed at RT and 70° C. Prior to the study, the starting material (Form A of Compound (I)) was used to saturate the corresponding solvent at RT and 70° C. before filtered to obtain a near-saturated solution. Equal amounts (˜ 5 mg) of Form A, Form B and Form C were weighed and then added to 0.3 mL of the prepared solution to form a new suspension, which was stirred magnetically (˜1000 rpm) at RT/70° C. for about 2 days.

[2] = Kinetic solubility in bio-relevant media (SGF, FaSSIF, FeSSIF) and H2O at 37° C.; conditions: for solubility at 24 h / solubility at 4 h: 37 °C, thermodynamic from solid; for Form change after kinetic solubility test: bio-relevant media or H2O, XRPD of residual solids
Procedure: Kinetic solubility tests of Form A, Form B, and Form C was performed in bio-relevant media (SGF, FaSSIF and FeSSIF) and H2O at 37° C. Solids were suspended into FaSSIF, FeSSIF, SGF and H2O with target conc. of ˜10 mg/mL. The suspensions were agitated on a rolling incubator at 25 rpm (in the incubator set at 37° C.) for 1, 4 and 24 hrs. At each time point, 1 mL of the suspension was pipetted out for centrifugation at 25000 rpm (3 min) and filtration through 0.45 μm membrane to obtain supernatant for HPLC solubility and pH tests. The residual solids were analyzed by XRPD. […] The solubility of Form A/B/C was summarized from Table 22-24.

[3] = Physical and chemical stability on storage (XRPD and HPLC); conditions: 40° C./75% RH; 25° C./60% RH; 60° C.; two and four weeks
Procedure: To evaluate the physical and chemical stability, Form A, Form B, and Form C were stored in 3 conditions (40° C./75% RH; 25° C./60% RH; and 60° C.) for two and four weeks. All samples were characterized using XRPD and HPLC.

[4] = Dynamic Vapor Sorption (DVS); conditions: for Weight gain by DVS: 0 percent to 95 percent relative humidity; for Weight gain by DVS / Hygroscopicity: about 25 degrees centigrade; for Form change after DVS test: XRPD after DVS, 25° C., 0 to 95% RH; for Hygroscopicity: no hygroscopicity = weight gain less than 0.2 weight percent, 0 to 95 percent RH
Procedure: DVS was measured via a SMS (Surface Measurement Systems) DVS Intrinsic. The relative humidity at 25° C. were calibrated against deliquescence point of LiCl, Mg(NO3)2 and KCl. To investigate the solid form stability as a function of humidity, DVS isotherm plots of Form A, Form B, and Form C were collected at 25° C. between 0 and 95% RH. […] As determined by Dynamic Vapor Sorption (DVS) in the range of from 0 percent to 95 percent relative humidity at a temperature of about 25 degrees centigrade (plus or minus 0.2 degrees C.), the crystalline Form A, Form B, and Form C of Compound (I) show a weight gain of about 0.09 weight percent, 0.07 weight percent, and 5.7 weight percent, respectively.

[5] = Equilibrium solubility in pH buffers, residual solid by XRPD; conditions: 8 pH buffers (pH 1.0-8.0), RT, 24 hrs, XRPD of residual solids
Procedure: Equilibrium solubility of Form B was measured in 8 pH buffers (i.e., pH 1.0, 2.0, 3.0, 4.0, 5.0, 6.0, 7.0, 8.0) at RT for 24 hrs. Solids were suspended into pH buffers with target conc. of ˜10 mg/mL. The suspensions were slurried at RT for 24 hrs (1000 rpm), prior to centrifugation at 20000 rpm (2 min), and filtration through 0.45 μm membrane to obtain supernatant for HPLC solubility and pH tests. The residual solids were analyzed by XRPD.

[6] = Form identification by heating to 100° C. and cooling to RT (XRPD comparison)
Procedure: A weight loss of 5.7% up to 100° C. was observed on the TGA curve for Form C prepared by evaporation. […] (peak temperature) and 124.9° C. (onset temperature). […] (peak temperature) and 127.0° C. (onset temperature) were observed on the DSC curve. For form identification, variable-temperature XRPD (VT-XRPD) was performed for Form C. […] Considering the large TGA weight loss and no XRPD change after removal of water/solvent (VT-XRPD). Single crystal structure determination confirmed that Form C is a channel hydrate (without form change after dehydration).
A two-stage weight loss of 3.8% up to 85° C. and 11.5% from 85° C. to 120° C. was observed on the TGA curve. […] For form identification, Form D was heated to 100° C. and cooled to RT. […] According to the results, Form D was characterized to be an IPA solvate.

[7] = Exposure to ambient condition (XRPD comparison)
Source text: Therefore, TGA and DSC characterizations were not performed for Form E. According to the single crystal structure determination results, Form E is a DCM solvate.

Structure (SMILES)	Thermodynamic stability relationship / conversion in slurry [1]	Solubility ([2]; FeSSIF (pH 5.0), 1 hr)	Solubility ([2]; H2O (pH 6.5), 1 hr)	Form change after kinetic solubility test [2]	Form change on storage (XRPD) [3]	HPLC purity change on storage [3]	Weight gain by DVS [4]	Form change after DVS test [4]	Solubility ([2]; FaSSIF (pH 6.5), 1 hr)	Solubility ([2]; FaSSIF (pH 6.5), 4 hr)	Solubility ([2]; FaSSIF (pH 6.5), 24 hr)	Solubility ([2]; FeSSIF (pH 5.0), 4 hr)	Solubility ([2]; FeSSIF (pH 5.0), 24 hr)	Solubility ([2]; H2O (pH 6.5), 4 hr)	Solubility ([2]; H2O (pH 6.5), 24 hr)	Solubility ([2]; SGF (pH 1.8), 1 hr)	Solubility ([2]; SGF (pH 1.8), 4 hr)	Solubility ([2]; SGF (pH 1.8), 24 hr)	Form change after heating to 100° C. and cooling to RT [6]	Hygroscopicity [4]	also measured
CN1C(=O)[C@@H](NC(=O)c2nnc(Cc3ccccc3)[nH]2)COc2cccnc21 [Form A + B + C]																					Crystal form after slurry competition ([1]; H2O or n-Heptane, RT or 70° C., about 2 days (experiments 1-4, merged cell)): Form B
CN1C(=O)[C@@H](NC(=O)c2nnc(Cc3ccccc3)[nH]2)COc2cccnc21 [Form A, (S)-5-benzyl-N-(5-methyl-4-oxo-2,3,4,5-tetrahydropyrido [3,2-b][1,4]oxazepin-3-yl)-4H-1,2,4-triazole-3-carboxamide]	converted to Form B	120 µg/mL (≈ 317 µM)	80 µg/mL (≈ 211 µM)	No form change	no observable form change	no noticeable HPLC purity change	about 0.09 weight percent	no form change												no hygroscopicity; also recorded: less hygroscopic	solubility at 24 h ([2]; FaSSIF, pH 6.5, fassif, FaSSIF (pH 6.5), 24 hr): 100 µg/mL (≈ 264 µM); solubility at 4 h ([2]; FeSSIF, pH 5, fessif, FeSSIF (pH 5.0), 4 hr): 120 µg/mL (≈ 317 µM); solubility at 24 h ([2]; FeSSIF, pH 5, fessif, FeSSIF (pH 5.0), 24 hr): 120 µg/mL (≈ 317 µM); solubility at 4 h ([2]; SGF, pH 1.8, simulated gastric fluid, SGF (pH 1.8), 4 hr): 100 µg/mL (≈ 264 µM); solubility at 24 h ([2]; SGF, pH 1.8, simulated gastric fluid, SGF (pH 1.8), 24 hr): 100 µg/mL (≈ 264 µM); solubility at 4 h ([2]; water, pH 6.5, water, H2O (pH 6.5), 4 hr): 90 µg/mL (≈ 238 µM); solubility at 24 h ([2]; water, pH 6.5, water, H2O (pH 6.5), 24 hr): 90 µg/mL (≈ 238 µM)
CN1C(=O)[C@@H](NC(=O)c2nnc(Cc3ccccc3)[nH]2)COc2cccnc21 [Form B, (S)-5-benzyl-N-(5-methyl-4-oxo-2,3,4,5-tetrahydropyrido [3,2-b][1,4]oxazepin-3-yl)-4H-1,2,4-triazole-3-carboxamide]	thermodynamically more stable	100 µg/mL (≈ 264 µM)	70 µg/mL (≈ 185 µM)	No form change	no observable form change	no noticeable HPLC purity change	~0.07 weight percent	no form change	80 µg/mL (≈ 211 µM)	90 µg/mL (≈ 238 µM)	90 µg/mL (≈ 238 µM)	110 µg/mL (≈ 291 µM)	100 µg/mL (≈ 264 µM)	70 µg/mL (≈ 185 µM)	70 µg/mL (≈ 185 µM)	80 µg/mL (≈ 211 µM)	80 µg/mL (≈ 211 µM)	80 µg/mL (≈ 211 µM)		less hygroscopic; also recorded: no hygroscopicity; also recorded: not hygroscopic	Form change after equilibrium solubility evaluation [5]: No form change
CN1C(=O)[C@@H](NC(=O)c2nnc(Cc3ccccc3)[nH]2)COc2cccnc21 [Form E, (S)-5-benzyl-N-(5-methyl-4-oxo-2,3,4,5-tetrahydropyrido [3,2-b][1,4]oxazepin-3-yl)-4H-1,2,4-triazole-3-carboxamide]																					Form change on exposure to ambient condition [7]: converted to Form C

The next lines start with results.

Thermodynamic stability relationship / conversion in slurry [1]	Solubility ([2]; FeSSIF (pH 5.0), 1 hr)	Solubility ([2]; H2O (pH 6.5), 1 hr)	Form change after kinetic solubility test [2]	Form change on storage (XRPD) [3]	HPLC purity change on storage [3]	Weight gain by DVS [4]	Form change after DVS test [4]	Solubility ([2]; FaSSIF (pH 6.5), 1 hr)	Solubility ([2]; FaSSIF (pH 6.5), 4 hr)	Solubility ([2]; FaSSIF (pH 6.5), 24 hr)	Solubility ([2]; FeSSIF (pH 5.0), 4 hr)	Solubility ([2]; FeSSIF (pH 5.0), 24 hr)	Solubility ([2]; H2O (pH 6.5), 4 hr)	Solubility ([2]; H2O (pH 6.5), 24 hr)	Solubility ([2]; SGF (pH 1.8), 1 hr)	Solubility ([2]; SGF (pH 1.8), 4 hr)	Solubility ([2]; SGF (pH 1.8), 24 hr)	Form change after heating to 100° C. and cooling to RT [6]	Structure (SMILES)	Hygroscopicity [4]	also measured
converted to Form B	970 µg/mL (≈ 2560 µM)	440 µg/mL (≈ 1160 µM)	converted to Form A	no observable form change	no noticeable HPLC purity change	~5.7 weight percent	no form change	860 µg/mL (≈ 2270 µM)	730 µg/mL (≈ 1930 µM)	150 µg/mL (≈ 396 µM)	150 µg/mL (≈ 396 µM)	170 µg/mL (≈ 449 µM)	100 µg/mL (≈ 264 µM)	100 µg/mL (≈ 264 µM)	700 µg/mL (≈ 1850 µM)	110 µg/mL (≈ 291 µM)	100 µg/mL (≈ 264 µM)	no form change	CN1C(=O)[C@@H](NC(=O)c2nnc(Cc3ccccc3)[nH]2)COc2cccnc21 [Form C, (S)-5-benzyl-N-(5-methyl-4-oxo-2,3,4,5-tetrahydropyrido [3,2-b][1,4]oxazepin-3-yl)-4H-1,2,4-triazole-3-carboxamide]		Final Form ([2]; residual solid by XRPD, H2O (pH 6.5), 1 hr): A + C
																		converted to Form C	CN1C(=O)[C@@H](NC(=O)c2nnc(Cc3ccccc3)[nH]2)COc2cccnc21 [Form D, (S)-5-benzyl-N-(5-methyl-4-oxo-2,3,4,5-tetrahydropyrido [3,2-b][1,4]oxazepin-3-yl)-4H-1,2,4-triazole-3-carboxamide]		
